{
  "source": "paper PMC10377601",
  "about": "“Side Chain-Modified Benzothiazinone Derivatives with Anti-Mycobacterial Activity” (Biomedicines, 2023)",
  "key": {"[1]": {"test_system": "Mycobacterium tuberculosis", "design": "method as in PMID 24500695", "settings": "whole-cell activity; cited from earlier work"}, "M. tuberculosis H37Rv [2]": {"test_system": "M. tuberculosis H37Rv", "experiment": "[14C]-acetate metabolic labeling, TLC analysis of lipids", "type": "cell-based", "settings": "Mtb H37Rv, 10 × MIC, 100 × MIC, 24 h, compared to control bacteria"}, "[3]": {"experiment": "Kinetic solubility in PBS", "settings": "pH 7.4, aqueous buffer, kinetic from dmso stock"}, "HepG2 cell": {"test_system": "HepG2 cell", "experiment": "Cytotoxicity against HepG2 cell, MTT assay", "type": "cell-based", "settings": "at a concentration lower than 1.0 μg/mL", "procedure": "(§1) HepG2 cells we r e obtained from the Chinese Type Culture Collection (Shanghai, China) and maintained in Dulbecco’s modiﬁed eagle medium (Gibco; #C11995500BT) con‐ taining 1% (v/v) penicillin/streptomycin (Beyotime; #C0222) and 10% (v/v) fetal bovine se‐ rum (Gibco; #GB10270106) in an atmosphere of 5% CO2 at 37 °C. HepG2 cells we r e seeded into 96‐we l l plates at a density of 5,000 cells/well (100 µL total volume) and treated with diﬀerent concentrations of compound 2 and 37 (0, 0.025, 0.2, 1, 5, and 10 µg/mL). After 24 h the medium wa s removed and the cells we r e incubated in a fresh medium containing 5 mg/mL MTT for 4 h. The medium wa s then removed and the precipitated formazan wa s dissolved in 100 µL of DMSO followed by shaking for 10 min. Finally, the absorbance at 570 nm wa s measured on a microplate spectrophotometer. Each treatment wa s performed […]\n(§2) Figure S1. Inhibitory activity of compounds 2 and 37 against HepG2 cell. […]"}, "[4]": {"experiment": "Cytotoxicity against HepG2 cell, MTT assay", "type": "cell-based", "settings": "human, HepG2 cells, at 5.0 μg/mL, 24 h", "procedure": "as §1, §2"}, "[5]": {"biological_target": "T1, recombinant M. tuberculosis DprE1 enzyme (Mycobacterium tuberculosis, UniProt P9WJF1)", "T1 construct": "made in house; host or cells: E. coli", "T1 sequence (P9WJF1 whole entry)": "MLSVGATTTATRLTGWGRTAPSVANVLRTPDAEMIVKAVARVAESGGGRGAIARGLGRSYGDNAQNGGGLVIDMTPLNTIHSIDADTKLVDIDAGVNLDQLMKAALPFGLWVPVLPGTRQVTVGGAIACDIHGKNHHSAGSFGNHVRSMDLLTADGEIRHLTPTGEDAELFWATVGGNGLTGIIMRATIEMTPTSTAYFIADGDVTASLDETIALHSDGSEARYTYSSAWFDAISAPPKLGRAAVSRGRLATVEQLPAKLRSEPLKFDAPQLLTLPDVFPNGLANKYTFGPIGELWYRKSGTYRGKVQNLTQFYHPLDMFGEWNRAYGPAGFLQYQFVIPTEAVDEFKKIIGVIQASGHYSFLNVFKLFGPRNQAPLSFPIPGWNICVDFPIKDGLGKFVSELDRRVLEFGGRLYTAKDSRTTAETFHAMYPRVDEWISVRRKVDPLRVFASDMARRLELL", "experiment": "DprE1 inhibition, Amplex Red/peroxidase coupled assay", "type": "biochemical", "settings": "Mtb DprE1"}, "E. coli": {"test_system": "E. coli", "experiment": "Inhibitory potency against E. coli", "type": "cell-based", "settings": "at 16 µg/mL"}, "[6]": {"experiment": "Pharmacokinetic study in mice", "type": "in vivo", "settings": "male, ICR, mouse, plasma", "source_text": "Animal Care and Welfare Committee of Shanghai Institute of Materia Medica, Chinese Academy of Sciences approved all animal protocols. All animal programs are in compliance with the Guide for the Care and Use of Laboratory Animals issued by Shanghai Association on Laboratory Animal Care (SALAC). SPF male ICR mice weighing 25–27 g were divided into two groups, three mice in each group. The tested compounds were administrated via oral and intravenous injection, separately. […] The compound was co-dissolved by using 0.5% carboxymethyl cellulose for p.o. administration, and 10% DMSO/40%PEG400/40% water was used for i.v. administration, respectively. After oral dosing or i.v. administration, the blood was sampled at 5, 15, 30 min, and 1, 2, 4, 7, and 24 h. The sample plasma was harvested and stored at −80 °C for analysis. Based on noncompartmental analysis (Pharsight Corporation, Sunnyvale, CA, USA), the pharmacokinetic data were analyzed using WinNonlin software version 6.3."}, "M. tuberculosis H37Rv [7]": {"test_system": "M. tuberculosis H37Rv", "experiment": "In vivo efficacy, mouse model acutely infected with Mtb H37Rv, lung CFU", "settings": "BALB/C mice, oral 50 mg/kg once per day for 4 weeks except weekends"}, "in vitro": {"experiment": "in vitro", "type": "in vitro ADME", "design": "dose or concentration left out as unconfirmed", "settings": "human, microsomes, pH 7.4", "procedure": "The compounds’ metabolic stability were determined in human liver microsomes. A solution of microsomes (0.2 mg/mL) containing the compounds […], NADPH (1 mM), and phosphate buffer (100 mM, pH 7.4) were prepared. Pre-incubation was conducted at 37 °C for 10 min. There was addition of 50 µL and 5 mM NADPH to initiate the reaction. At 5, 15, 30, 60, or 120 min, 30 µL of reaction solution was taken out and quenched with 300 µL internal standard tolbutamide (10 ng/mL) in cold CH3CN. The mixture was centrifuged at 6000 rpm for 15 min at 4 °C. Then, 100 μL supernatant was diluted with 100 uL ultrapure water (Millipore, ZMQS50F01). The solution was analyzed via LC/MS analysis."}, "M. tuberculosis H37Rv [8]": {"test_system": "M. tuberculosis H37Rv", "experiment": "MIC determination by microplate alamar blue assay (MABA)", "type": "cell-based", "settings": "Mycobacterium tuberculosis"}},
  "data": [
    {"smiles": "C[C@H]1COC2(CCN(c3nc(=O)c4cc(C(F)(F)F)cc([N+](=O)[O-])c4s3)CC2)O1", "note": "[BTZ043]", "values": [
      {"measurement": "minimal inhibitory concentration (MIC)", "setting": "[1]", "result": "lower than 0.004 µM"}
    ]},
    {"smiles": "CN(Cc1cn(-c2ccccc2)nn1)c1nc(=O)c2cc(C(F)(F)F)cc([N+](=O)[O-])c2s1", "note": "[Compound 2, 2-{methyl[(1-phenyl-1H-1,2,3-triazol-4-yl)methyl]amino}-BTZ]", "values": [
      {"measurement": "Lipid profile after [14C]-acetate labeling", "setting": "M. tuberculosis H37Rv [2]", "result": "accumulated trehalose monomycolates (TMM) and trehalose dimycolates (TDM)"},
      {"measurement": "solubility at 4 h", "setting": "[3]", "result": 0.13, "unit": "µg/mL"},
      {"measurement": "Inhibition of HepG2 cell viability", "setting": "HepG2 cell", "result": "No inhibition of cell viability"},
      {"measurement": "viability at 24 h, 5 μg/mL", "setting": "[4]", "result": "72 to 75", "unit": "%"},
      {"measurement": "IC50", "setting": "[5]", "result": "20 to 750", "unit": "nM"},
      {"measurement": "Inhibitory potency against E. coli", "setting": "E. coli", "result": "no obvious activity"},
      {"measurement": "AUC", "setting": "[6]; IV 2 mg/kg", "result": 1210, "unit": "ng·h/mL"},
      {"measurement": "Cmax", "setting": "[6]; IV 2 mg/kg", "result": 1250, "unit": "ng/mL"},
      {"measurement": "MRT", "setting": "[6]; IV 2 mg/kg", "result": 1.5, "unit": "h"},
      {"measurement": "half-life", "setting": "[6]; IV 2 mg/kg", "result": 66, "unit": "min"},
      {"measurement": "clearance", "setting": "[6]; IV 2 mg/kg, read-out: Clint (hepatic clearance) (converted)", "result": 27.8, "unit": "mL/min/kg"},
      {"measurement": "AUC", "setting": "[6]; PO 10 mg/kg", "result": 2190, "unit": "ng·h/mL"},
      {"measurement": "Cmax", "setting": "[6]; PO 10 mg/kg", "result": 1800, "unit": "ng/mL"},
      {"measurement": "MRT", "setting": "[6]; PO 10 mg/kg", "result": 2, "unit": "h"},
      {"measurement": "half-life", "setting": "[6]; PO 10 mg/kg", "result": 78, "unit": "min"},
      {"measurement": "bioavailability", "setting": "[6]; oral, p.o. 10 mg/kg vs i.v. 2 mg/kg, read-out: F (oral bioavailability)", "result": 35.7, "unit": "%"},
      {"measurement": "Reduction of bacteria load in the lungs compared to the control group", "setting": "M. tuberculosis H37Rv [7]", "result": "barely displayed efficacy"},
      {"measurement": "CLint scaled", "setting": "in vitro", "result": 17.3, "unit": "mL/min/kg"},
      {"measurement": "half-life", "setting": "in vitro", "result": 100, "unit": "min"},
      {"measurement": "MIC", "setting": "M. tuberculosis H37Rv [8]; 168 h, Mtb H37Rv, MABA", "result": 0.009, "unit": "µM"},
      {"measurement": "MIC", "setting": "M. tuberculosis H37Rv [8]; Mtb H37Rv, MABA", "result": 0.009, "unit": "µM"}
    ]},
    {"smiles": "CN(Cc1cn(-c2c(F)cccc2F)nn1)c1nc(=O)c2cc(C(F)(F)F)cc([N+](=O)[O-])c2s1", "note": "[Compound 24]", "values": [
      {"measurement": "IC50", "setting": "[5]", "result": 7200, "unit": "nM"},
      {"measurement": "MIC", "setting": "M. tuberculosis H37Rv [8]; Mtb H37Rv, MABA", "result": 0.259, "unit": "µM"}
    ]},
    {"smiles": "CN(Cc1cn(-c2ccc(Cl)c(Cl)c2)nn1)c1nc(=O)c2cc(C(F)(F)F)cc([N+](=O)[O-])c2s1", "note": "[Compound 26]", "values": [
      {"measurement": "IC50", "setting": "[5]", "result": 20, "unit": "nM"},
      {"measurement": "MIC", "setting": "M. tuberculosis H37Rv [8]; H37Rv, Table S1", "result": 4, "unit": "ng/mL"},
      {"measurement": "MIC", "setting": "M. tuberculosis H37Rv [8]; Mtb H37Rv, MABA", "result": 0.036, "unit": "µM"}
    ]},
    {"smiles": "CN(Cc1cn(-c2ccc(F)c(Br)c2)nn1)c1nc(=O)c2cc(C(F)(F)F)cc([N+](=O)[O-])c2s1", "note": "[Compound 27]", "values": [
      {"measurement": "IC50", "setting": "[5]", "result": 7200, "unit": "nM"},
      {"measurement": "MIC", "setting": "M. tuberculosis H37Rv [8]; H37Rv, Table S1", "result": 129, "unit": "ng/mL"},
      {"measurement": "MIC", "setting": "M. tuberculosis H37Rv [8]; Mtb H37Rv, MABA", "result": 0.055, "unit": "µM"}
    ]},
    {"smiles": "CN(Cc1cn(-c2ccc(F)c(Cl)c2)nn1)c1nc(=O)c2cc(C(F)(F)F)cc([N+](=O)[O-])c2s1", "note": "[Compound 28]", "values": [
      {"measurement": "IC50", "setting": "[5]", "result": 41, "unit": "nM"},
      {"measurement": "MIC", "setting": "M. tuberculosis H37Rv [8]; H37Rv, Table S1", "result": 8, "unit": "ng/mL"},
      {"measurement": "MIC", "setting": "M. tuberculosis H37Rv [8]; Mtb H37Rv, MABA", "result": 0.029, "unit": "µM"}
    ]},
    {"smiles": "CN(Cc1cn(-c2ccc(Cl)cc2Cl)nn1)c1nc(=O)c2cc(C(F)(F)F)cc([N+](=O)[O-])c2s1", "note": "[Compound 29]", "values": [
      {"measurement": "IC50", "setting": "[5]", "result": 24, "unit": "nM"},
      {"measurement": "MIC", "setting": "M. tuberculosis H37Rv [8]; H37Rv, Table S1", "result": 4, "unit": "ng/mL"},
      {"measurement": "MIC", "setting": "M. tuberculosis H37Rv [8]; Mtb H37Rv, MABA", "result": 0.023, "unit": "µM"}
    ]},
    {"smiles": "CN(Cc1cn(-c2cc(Cl)cc(Cl)c2)nn1)c1nc(=O)c2cc(C(F)(F)F)cc([N+](=O)[O-])c2s1", "note": "[Compound 30]", "values": [
      {"measurement": "IC50", "setting": "[5]", "result": 90, "unit": "nM"},
      {"measurement": "MIC", "setting": "M. tuberculosis H37Rv [8]; H37Rv, Table S1", "result": 6, "unit": "ng/mL"},
      {"measurement": "MIC", "setting": "M. tuberculosis H37Rv [8]; Mtb H37Rv, MABA", "result": 0.047, "unit": "µM"}
    ]}
  ]
}
